Assay results published in PubChem BioAssay AID1794809.
Inconclusive results are not listed.

Biological target: Sodium- and chloride-dependent glycine transporter 1 (Homo sapiens) (UniProt P48067)
Experiment: PubChem AID 1794809
Details: HEK-293 SLC6A9 OE, FLIPR membrane potential dye

Sodium- and chloride-dependent glycine transporter 1 (Homo sapiens), sequence (P48067 whole entry, looked up): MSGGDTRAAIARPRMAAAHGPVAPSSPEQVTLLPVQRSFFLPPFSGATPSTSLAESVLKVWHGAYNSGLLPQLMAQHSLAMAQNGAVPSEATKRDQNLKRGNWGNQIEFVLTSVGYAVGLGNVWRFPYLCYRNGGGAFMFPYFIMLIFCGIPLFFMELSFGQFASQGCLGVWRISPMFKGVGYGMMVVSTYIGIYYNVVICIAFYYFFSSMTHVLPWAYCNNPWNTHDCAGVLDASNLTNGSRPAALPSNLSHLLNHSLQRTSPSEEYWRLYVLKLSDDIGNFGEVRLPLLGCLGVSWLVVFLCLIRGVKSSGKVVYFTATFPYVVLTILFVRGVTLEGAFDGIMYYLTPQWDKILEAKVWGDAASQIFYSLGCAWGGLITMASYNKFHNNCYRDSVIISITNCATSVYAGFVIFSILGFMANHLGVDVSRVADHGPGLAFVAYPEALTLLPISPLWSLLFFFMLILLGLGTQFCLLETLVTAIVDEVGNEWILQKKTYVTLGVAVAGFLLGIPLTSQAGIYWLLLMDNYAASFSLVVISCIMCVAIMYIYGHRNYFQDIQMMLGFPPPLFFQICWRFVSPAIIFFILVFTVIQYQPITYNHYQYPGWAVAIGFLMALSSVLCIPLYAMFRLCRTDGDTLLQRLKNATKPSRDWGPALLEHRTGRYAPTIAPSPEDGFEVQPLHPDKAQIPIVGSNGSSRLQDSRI

EC50: 106 µM
SMILES: NCC(=O)O
